Results published in patent US20230131899A1, “INHIBITORS OF MICROBIALLY INDUCED AMYLOID” (Axial Therapeutics, Inc., priority 2020, published 2023).
Read-outs that look alike come from different tables or passages of the source.

What was measured:
human α-synuclein = molecular target: T1, human α-synuclein (Homo sapiens, UniProt P37840); assay: Cell-free Thioflavin T assay of α-synuclein aggregation (αSyn ThT Assay); assay type: biochemical; settings: αSyn 50 μM
T1 construct: the full-length gene for untagged human α-synuclein was inserted; made in house; host or cells: E. coli BL21(DE3), plasmid derived from pT7 or pET11a
Description: To assess the effects of compounds on aggregation of α-synuclein, a cell-free assay was performed using purified α-synuclein and Thioflavin T. In the assay, human α-synuclein was expressed in E. coli BL21(DE3) from a plasmid derived from pT7 or pET11a into which the full-length gene for untagged human α-synuclein was inserted. Cells were induced at OD600 0.6 with 0.8 mM IPTG for 4 hours, harvested by centrifugation and suspended in a volume of lysis buffer (10 mM Tris, pH 8.0, 1 mM EDTA, and 1 mM PMSF) equivalent to one-tenth the volume of culture and lysed by boiling for 20 minutes. Cell debris was pelleted by centrifugation, clarified lysate was treated with 10% streptomycin sulfate at 136 μL/mL followed by glacial acetic acid at 228 μL/mL, lysate was centrifuged, supernatant was transferred to a fresh tube and protein was precipitated via addition of an equal volume of saturated (100%) ammonium sulfate and incubated at 4° C. on a rocking shaker for 1 hour. The protein was pelleted via centrifugation and washed with an equal volume of 100 mM ammonium acetate in chilled ethanol, pelleted via centrifugation, washed twice with chilled ethanol, dried overnight, resuspended in 50 mM potassium phosphate buffer pH 7.3 or 10 mM Tris pH 7.4, and passed through a 50 kDa cut-off column. Immediately prior to use, the purified α-synuclein was filtered with a 0.2 μm nylon filter. The assay was conducted in 96-well black microplates with a single 1-2 mm glass bead in each well, 20-40 μM ThioflavinT, 1% DMSO, α-synuclein at 50 μM and compounds at 20-100 μM. Plates were sealed with sealing tape (ThermoFisher 232701), incubated at 37° C. in a Tecan Nano F200 plate reader with excitation at 438 nm using a 439 nm filter with a bandwidth of 8 nm, and emission at 495 nm with a 490 nm filter with a bandwidth of 10 nm. During the assay, plates were shaken continuously or were shaken for 999 seconds every 18 minutes. Readings were performed hourly for up to 73 hours. The effect of compounds on α-synuclein aggregation in the assay was determined with data at 36, 47, 48 or 72 hours or from the final timepoint of the assay, prior to or roughly near the time when ThT fluorescence plateaued in the vehicle control wells. The vehicle controls contained all components of the assay except compounds and represented the level of α-synuclein aggregation in the absence of an inhibitor or accelerator. Fluorescence values for each compound with α-synuclein were first adjusted by subtracting the average fluorescence of the compound in the absence of α-synuclein. These adjusted values were normalized by dividing them by the average fluorescence at the same timepoint in the vehicle control wells, and the average normalized fluorescence with the compound was expressed as a percentage of the average fluorescence observed in untreated controls. Percent inhibition of α-synuclein aggregation by a compound was determined by subtracting the percent average fluorescence with the compound relative to the average vehicle control from 100%. A higher positive percent inhibition reflects greater inhibition of α-synuclein aggregation, while a negative percent inhibition reflects potentiation of α-synuclein aggregation.
Alternate concentrations of Thioflavin T may be used in the assay and may affect the fluorescent signal and sensitivity of the assay. Alternate concentrations of α-synuclein may be used and such alterations may affect aggregation kinetics of α-synuclein in the assay. Alternate concentrations of compounds may be tested in the assay, and dose-responses may be evaluated. Additional reagents may be added to the assay which may affect aggregation kinetics of α-synuclein depending on their concentration, including detergents such as sodium dodecyl sulfate, sodium chloride, dithiotreitol, or bovine serum albumin. Shaking may be included at alternate intervals in the assay and may affect α-synuclein aggregation kinetics. […]

[1] = test system: CsgA gene expression (csgBAC promoter-GFP reporter) in E. coli UTI89; assay: In vitro live cell fluorescent reporter assay of CsgA transcription (Reporter Assay); assay type: cell-based; settings: Escherichia coli
Outline: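 Chromosomal single-copy csgBAC promoter–GFP reporter in E. coli UTI89, started at OD600 0.003 in YESCA broth with compound (0.14–100 μM, 1% DMSO), 20 h at 27 °C. GFP (ex 485/em 525 nm) background-subtracted and normalized to vehicle; IC50 and X[50] from curve fits. OD600 tracked growth effects.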

E. coli CsgA = molecular target: T2, E. coli CsgA (Escherichia coli, UniProt P28307); assay: In vitro ThioflavinT assay of CsgA aggregation (CsgA ThT Assay); assay type: biochemical; settings: for remaining activity at 25 µM: compound 25 μM; for remaining activity at 100 µM: compound 100 μM
T2 construct: made in house; host or cells: E. coli NEB 3016 slyD::kan, pET11d
Outline: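 Purified C-terminal His-tagged CsgA, monomerised by desalting and 30-kDa filtration, at 2-20 μM with 20-40 μM ThT in 50 mM potassium phosphate pH 7.3, 1% DMSO, compounds 3.125-200 uM; room temperature, fluorescence (ex 438/em 495 nm) read every 15 min. Background-subtracted signal expressed as percent inhibition versus vehicle at 6-6.5 or 8-9 h, or as percent control AUC.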

[2] = class symbol, compounds 100 μM, read-out: αSyn ThT Assay % inhibition, activity range
[3] = mean percent inhibition relative to DMSO control, compounds 100 μM, read-out: αSyn ThT Assay % inhibition
[4] = read-out: Reporter Assay Abs IC50 (μM), median Abs IC50 in the CsgA reporter assay, N/A = maximum expression reduction is <50% of control
[5] = read-out: Reporter Assay Abs IC50, activity range, class symbol
[6] = read-out: CsgA ThT Assay (10 μM CsgA) % Control AUC at 1005 minutes, 25 μM (activity range), CsgA 10 μM, black plates, 1005 minutes, class symbol
[7] = read-out: CsgA ThT Assay (10 μM CsgA) % Control AUC at 1005 minutes, 25 μM, mean AUC as % of DMSO control, CsgA 10 μM, black plates, 1005 minutes
[8] = read-out: CsgA ThT Assay (10 μM CsgA) % Control AUC at 1005 minutes, 100 μM (activity range), CsgA 10 μM, black plates, 1005 minutes, class symbol
[9] = read-out: CsgA ThT Assay (10 μM CsgA) % Control AUC at 1005 minutes, 100 μM, mean AUC as % of DMSO control, CsgA 10 μM, black plates, 1005 minutes
[10] = mean % inhibition of αSyn aggregation relative to DMSO control, compounds at 100 μM, read-out: αSyn ThT Assay % Inhibition
[11] = compounds at 100 μM, class symbol, read-out: αSyn ThT Assay % Inhibition (activity range)
[12] = read-out: CsgA ThT Assay (2 μM CsgA) % Control Bmax 25 μM, activity range, class symbol, CsgA 2 μM, white plates
[13] = read-out: CsgA ThT Assay (2 μM CsgA) % Control Bmax 25 μM, mean Bmax as percentage of DMSO control, CsgA 2 μM, white plates

T2 sequence (P28307 23-151): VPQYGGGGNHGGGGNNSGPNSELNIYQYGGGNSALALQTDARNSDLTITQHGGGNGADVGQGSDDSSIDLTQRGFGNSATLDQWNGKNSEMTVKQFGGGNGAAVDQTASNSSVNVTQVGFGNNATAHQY

COc1ccccc1CN1CC(C(=O)O)n2c1c(-c1cccc(C(F)(F)F)c1)c(Cc1cccc3ccccc13)c(Cl)c2=O (stereo not drawn) [Compound 195, 6-chloro-1-(2-methoxybenzyl)-7-(naphthalen-1-ylmethyl)-5-oxo-8-(3-(trifluoromethyl)phenyl)-1,2,3,5-tetrahydroimidazo[1,2-a]pyridine-3-carboxylic acid]
inhibition at 100 µM (human α-synuclein; [2]): 31 to 60% | inhibition at 100 µM (human α-synuclein; [3]): 45% | IC50 [1, 4]: 1.8 µM | IC50 [1, 5]: 1.3 to 4.5 µM

CC(C)(C)c1ccc(CCN2CC(C(=O)O)n3c2c(-c2cccc(C(F)(F)F)c2)c(Cc2cccc4ccccc24)c(Cl)c3=O)cc1 (stereo not drawn) [Compound 239, 1-(4-(tert-butyl)phenethyl)-6-chloro-7-(naphthalen-1-ylmethyl)-5-oxo-8-(3-(trifluoromethyl)phenyl)-1,2,3,5-tetrahydroimidazo[1,2-a]pyridine-3-carboxylic acid]
inhibition at 100 µM (human α-synuclein; [2]): 31 to 60% | inhibition at 100 µM (human α-synuclein; [3]): 58% | IC50 [1, 4]: 0.6 µM | IC50 [1, 5]: < 1.3 µM

Nc1c(Cc2cccc3ccccc23)c(-c2cccc(C(F)(F)F)c2)c2scc(C(=O)O)n2c1=O [Compound 050, 6-amino-7-(naphthalen-1-ylmethyl)-5-oxo-8-(3-(trifluoromethyl)phenyl)-5H-thiazolo[3,2-a]pyridine-3-carboxylic acid]
remaining activity at 25 µM (E. coli CsgA; [6]): 31 to 60% | remaining activity at 25 µM (E. coli CsgA; [7]): 36% | remaining activity at 100 µM (E. coli CsgA; [8]): 11 to 31% | remaining activity at 100 µM (E. coli CsgA; [9]): 22% | inhibition at 100 µM (human α-synuclein; [10]): 49% | inhibition at 100 µM (human α-synuclein; [11]): 31 to 60%

CN1CC(C(=O)O)n2c(c(-c3cccc(C(F)(F)F)c3)c(Cc3ccc(NS(C)(=O)=O)c4ccccc34)cc2=O)S1(=O)=O (stereo not drawn) [Compound 067]
remaining activity at 25 µM (E. coli CsgA; [6]): > 60% | remaining activity at 25 µM (E. coli CsgA; [7]): 67% | remaining activity at 100 µM (E. coli CsgA; [8]): 11 to 31% | remaining activity at 100 µM (E. coli CsgA; [9]): 16% | inhibition at 100 µM (human α-synuclein; [10]): 35% | inhibition at 100 µM (human α-synuclein; [11]): 31 to 60%

CC(=O)Nc1ccc(Cc2cc(=O)n3c(c2-c2cccc(C(F)(F)F)c2)S(=O)(=O)N(C)CC3C(=O)O)c2ccccc12 (stereo not drawn) [Compound 048]
remaining activity at 25 µM (E. coli CsgA; [6]): > 60% | remaining activity at 25 µM (E. coli CsgA; [7]): 90% | remaining activity at 100 µM (E. coli CsgA; [8]): > 60% | remaining activity at 100 µM (E. coli CsgA; [9]): 61% | inhibition at 100 µM (human α-synuclein; [10]): 18% | inhibition at 100 µM (human α-synuclein; [11]): 11 to 30%

CCCN1CC(C(=O)O)n2c(c(-c3cccc(C(F)(F)F)c3)c(Cc3cccc4ccccc34)c(OC3CCCC3)c2=O)S1(=O)=O (stereo not drawn) [Compound 144, 7-(cyclopentyloxy)-8-(naphthalen-1-ylmethyl)-6-oxo-2-propyl-9-(3-(trifluoromethyl)phenyl)-3,4-dihydro-2H,6H-pyrido[1,2-e][1,2,5]thiadiazine-4-carboxylic acid 1,1-dioxide]
remaining activity at 25 µM (E. coli CsgA; [12]): > 60% | remaining activity at 25 µM (E. coli CsgA; [13]): 77% | inhibition at 100 µM (human α-synuclein; [2]): 11 to 30% | inhibition at 100 µM (human α-synuclein; [3]): 29%

CC(C)NC(=O)c1c(Cc2cccc3ccccc23)c(-c2cccc(C(F)(F)F)c2)c2n(c1=O)C(C(=O)O)CN(C)S2(=O)=O (stereo not drawn) [Compound 157, 7-(isopropylcarbamoyl)-2-methyl-8-(naphthalen-1-ylmethyl)-6-oxo-9-(3-(trifluoromethyl)phenyl)-3,4-dihydro-2H,6H-pyrido[1,2-e][1,2,5]thiadiazine-4-carboxylic acid 1,1-dioxide]
remaining activity at 25 µM (E. coli CsgA; [12]): > 60% | remaining activity at 25 µM (E. coli CsgA; [13]): 81% | remaining activity at 100 µM (E. coli CsgA; read-out: CsgA ThT Assay (2 μM CsgA) % Control Bmax 100 μM, activity range, class symbol, CsgA 2 μM, white plates): > 60% | remaining activity at 100 µM (E. coli CsgA; read-out: CsgA ThT Assay (2 μM CsgA) % Control Bmax 100 μM, mean Bmax as percentage of DMSO control, CsgA 2 μM, white plates): 124% | inhibition at 100 µM (human α-synuclein; [2]): > 60% | inhibition at 100 µM (human α-synuclein; [3]): 83%

CN1CC(C(=O)O)n2c(c(-c3cccc(C(F)(F)F)c3)c(Cc3cccc4ccccc34)cc2=O)S1(=O)=O (single isomer, unassigned) [Compound 008a, 2-methyl-8-(naphthalen-1-ylmethyl)-6-oxo-9-(3-(trifluoromethyl)phenyl)-3,4-dihydro-2H,6H-pyrido[1,2-e][1,2,5]thiadiazine-4-carboxylic acid 1,1-dioxide]
remaining activity at 25 µM (E. coli CsgA; [6]): > 60% | remaining activity at 25 µM (E. coli CsgA; [7]): 71% | remaining activity at 100 µM (E. coli CsgA; [8]): 31 to 60% | remaining activity at 100 µM (E. coli CsgA; [9]): 38% | inhibition at 100 µM (human α-synuclein; [10]): 16% | αSyn ThT Assay % Inhibition (activity range) (human α-synuclein; compounds at 100 μM, class symbol): (+) ((+) represents 11 to 30)

O=C(O)CCCN1CC(C(=O)O)n2c(c(-c3cccc(C(F)(F)F)c3)c(Cc3cccc4ccccc34)cc2=O)S1(=O)=O (stereo not drawn) [Compound 029, 2-(3-carboxypropyl)-8-(naphthalen-1-ylmethyl)-6-oxo-9-(3-(trifluoromethyl)phenyl)-3,4-dihydro-2H,6H-pyrido[1,2-e][1,2,5]thiadiazine-4-carboxylic acid 1,1-dioxide]
remaining activity at 25 µM (E. coli CsgA; [6]): > 60% | remaining activity at 25 µM (E. coli CsgA; [7]): 71% | remaining activity at 100 µM (E. coli CsgA; [8]): 31 to 60% | remaining activity at 100 µM (E. coli CsgA; [9]): 48% | inhibition at 100 µM (human α-synuclein; [10]): -2% | inhibition at 100 µM (human α-synuclein; [11]): -10 to 10%

CN1CC(C(=O)O)n2c(c(-c3cccc(C(F)(F)F)c3)c(Cc3ccc(N)c4ccccc34)cc2=O)S1(=O)=O (stereo not drawn) [Compound 040]
remaining activity at 25 µM (E. coli CsgA; [6]): > 60% | remaining activity at 25 µM (E. coli CsgA; [7]): 78% | remaining activity at 100 µM (E. coli CsgA; [8]): < 10% | remaining activity at 100 µM (E. coli CsgA; [9]): 8% | inhibition at 100 µM (human α-synuclein; [10]): 61% | inhibition at 100 µM (human α-synuclein; [11]): > 60%
